According to patent US20240018146A1, “COMPOSITIONS AND METHODS OF USING THE SAME FOR TREATMENT OF NEURODEGENERATIVE AND MITOCHONDRIAL DISEASE” (MITOKININ, INC., priority 2020, published 2024):
Converted amounts (≈) assume the structure as drawn. Like-named read-outs stand apart in the source and are kept apart here.

Assays:
Kinetic solubility = assay type: physicochemical
[1] = Mitotoxicity / Mitotox safety margin (therapeutic window); assay type: cell-based
HeLa MKYP cells [2] = experiment: Human mitophagy assay (HeLa mKeima assay, FACS); assay type: cell-based
Procedure, shortened: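 HeLa cells carrying the pH-sensitive mtKeima tag incubated 16 h with compound at several concentrations, then 1 uM FCCP/oligomycin for 6 h. FACS detects mitochondria in lysosomes through the Keima emission shift, quantified as percentage of cells in mitophagy.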

HeLa MKYP cells [3] = experiment: Cell death measured by DAPI staining, with 1 μM FCCP/oligomycin or no toxin (no FO); assay type: cell-based; conditions: for E105 death at 8.3 μM (no FO): 8.3 μM compound; for Max cell death at 25 μM compound, 1 uM FO (%) / Cell death at 25 μM (no FO) (%) / E104 death at 25 μM (no FO): 25 μM compound
Procedure, shortened: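 HeLa MKYP cells were treated with compounds alongside 1 μM FCCP/oligomycin or no toxin for 6 or 6.5 h. Cell death was scored by DAPI staining, with H2O2 treatment as the death control.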

pS129 α-syn = experiment: Preformed fibril (PFF) model in primary neuron culture, pS129 α-syn; assay type: cell-based; conditions: increasing doses
Experimental: 4. Preformed Fibril Model
Mouse and human alpha-synuclein monomers have been sourced commercially, then pre-formed fibrils have been generated as per the detailed protocol provided by the MJFF. For in vitro experiments primary hippocampal neurons isolated from P0 pups were grown for 7 days after which PFFs at 5 ug/ml were introduced Pre-formed fibrils will be introduced via stereotactic injection into the striatum of wt (C57BL/6J, Jax #000664) and transgenic A53T mice (B6;C3-Tg(Prnp-SNCA*A53T)83Vle/J, Jax #004479). Cohorts of drug-treated (oral gavage) and untreated animals will then be allowed to age for up to 6 months, at which point they will be sacrificed and perfused. Brains will be removed and fixed, then sectioned for analysis. We anticipate that untreated A53T animals will show significant spreading of aggregated alpha-synuclein pathology and pS129 staining, as well as some possible neurodegeneration; wt animals are also expected to show pS129 synuclein staining and synuclein aggregation, albeit less than that seen in the A53T background.

[4] = Inspection of crystallization and round cells; assay type: physicochemical; design: key: 1=yes crystals; 0=no crystals
Experimental: 5. Inspection of Crystallization and Round Cells
Briefly, the Hela MKYP (Mito-Keima/YFP-Parkin) cells were seeded at 10K cells/well. EP/MTK compounds were added at seeding (cells were still in suspension). The cells were incubated with the EP/MTK compounds for 16 hours, then 1 μM FCCP/oligomycin was added for 6 hours. Prior to harvesting, cells were scored by eye under 20× magnification for the presence or absence of crystalline or aggregated compound, or round cells.

[5] = Homo sapiens, HeLa, HeLa mKeima assay, read-out: Mitophagy EC50 (HeLa mKeima assay)
[6] = Homo sapiens, HeLa, read-out: Mitophagy induction EC50
[7] = mitophagy, 1 μM FCCP/oligomycin
[8] = read-out: Mitophagy induction EC50

| Compound | solubility kinetic (Kinetic solubility) [µM] | Mito-Safety Index (highest safe dose/EC50) [1] | Highest safe dose (μM) (mitotox or cytotox) [1] [µM] | EC50 (HeLa MKYP cells [2]; [5]) [nM] | EC50 (HeLa MKYP cells [2]; [6]) [nM] | Max cell death at 25 μM compound, 1 uM FO (%) (HeLa MKYP cells [3]) | Cell death at 25 μM (no FO) (%) (HeLa MKYP cells [3]) | Highest safe dose (cytotoxicity; no FO; safe means DAPI+ <20%) (HeLa MKYP cells [3]) [µM] | Max % death with 1 μM FO (HeLa MKYP cells [3]) [%] | pS129 α-syn (250-12) in primary neuron culture (pS129 α-syn) | pS129 α-syn (monomer) in primary neuron culture (pS129 α-syn) | pS129 α-syn in primary neuron culture (pS129 α-syn) | further results |
| --- | --- | --- | --- | --- | --- | --- | --- | --- | --- | --- | --- | --- | --- |
| FC(F)(F)c1cc2c(N[C@@H]3c4ccccc4CC[C@H]3N3CCOCC3)ncnc2[nH]1 (racemic) [EP-0037821] | 14.1 (≈ 5.89 µg/mL) | 22.05 | 8.3 | 400 | 380 | 71.62 | 41.03 | 13.9 | 68.5 |  |  |  | Mitotox safety margin (Therapeutic window) [1]: ++++ (++++ = 30<); E102 max mitophagy, fold over DMSO (HeLa MKYP cells [2]; 1 μM FCCP/oligomycin): 9.53 fold over DMSO; EC50 (HeLa MKYP cells [2]; Homo sapiens, HeLa, mitophagy, 1 μM FCCP/oligomycin, read-out: E100 EC50): 450 nM; E101 lowest effective dose (HeLa MKYP cells [2]; [7]): 0.30 µM; E105 death at 8.3 μM (no FO) (HeLa MKYP cells [3]): 2.87; E104 death at 25 μM (no FO) (HeLa MKYP cells [3]): 25.17; E103 max death with 1 μM FO (HeLa MKYP cells [3]): 62.82 |
| c1ccc2c(c1)CC[C@H](N1CCOCC1)[C@H]2Nc1ncnc2[nH]c(C3CC3)cc12 (racemic) [EP-0039677] | 1.56 (≈ 0.608 µg/mL) | 13.51 | 2.8 | 210 | 210 | 10.2 | 3.02 | 25.0 | 10.2 |  |  |  | Mitotox safety margin (Therapeutic window) [1]: ++++ (++++ = 30<) |
| FC(F)(F)c1cc2c(N[C@@H]3c4ccccc4CC[C@H]3N3CCOCC3)ncnc2[nH]1 (single isomer, unassigned) [EP-0038099] | 14.1 (≈ 5.89 µg/mL) |  |  |  |  | 13.7 | 4.11 |  |  |  |  |  | E102 max mitophagy, fold over DMSO (HeLa MKYP cells [2]; 1 μM FCCP/oligomycin): 7.78 fold over DMSO; Mitophagy EC50 (HeLa mKeima assay) (μM) (HeLa MKYP cells [2]; HeLa mKeima assay): Minimal; E101 lowest effective dose (HeLa MKYP cells [2]; [7]): 25.00 µM; E105 death at 8.3 μM (no FO) (HeLa MKYP cells [3]): 2.41; E104 death at 25 μM (no FO) (HeLa MKYP cells [3]): 4.11; E103 max death with 1 μM FO (HeLa MKYP cells [3]): 13.71 |
| O=C1COCCN1[C@H]1CCc2ccccc2[C@@H]1Nc1ncnc2[nH]c(C(F)(F)F)cc12 (single isomer, unassigned) [EP-0038378] | 3.02 (≈ 1.3 µg/mL) |  |  | 2770 | > 25000 | 15.4 | 4.55 | 25.0 | 15.4 |  |  |  |  |
| FC(F)(F)c1cc2c(N[C@H]3c4ccccc4CC[C@@H]3N3CCCCC3)ncnc2[nH]1 (single isomer, unassigned) [EP-0038392] | 187 (≈ 77.7 µg/mL) |  |  | 2770 | > 25000 | 23.2 | 3.1 | 25.0 | 23.2 |  |  |  |  |
| FC1(F)CCN([C@H]2CCc3ccccc3[C@@H]2Nc2ncnc3[nH]c(C(F)(F)F)cc23)CC1 (single isomer, unassigned) [EP-0038393] | 1 (≈ 0.451 µg/mL) |  |  | 2430 | > 25000 | 17.6 | 1.98 | 25.0 | 17.6 |  |  |  |  |
| c1ccc2c(c1)OC[C@H](C1CCOCC1)[C@H]2Nc1ncnc2[nH]c(C3CC3)cc12 (single isomer, unassigned) [EP-0040587] |  | 230.81 | 21.5 |  | 90 |  |  | 25.0 | 21.5 | reduces | reduces | reduces |  |
| Fc1ccc2c(c1)OC[C@H](N1C[C@@H]3COC[C@H]3C1)[C@H]2Nc1ncnc2[nH]c(C3CC3)cc12 (single isomer, unassigned) [EP-0040874] |  | 94.72 | 13.9 |  |  |  |  | 25.0 | 14.4 | reduces | reduces | reduces | EC50 (HeLa MKYP cells [2]; [8]): 150 nM |
| FC(F)(F)c1cc2c(N[C@H]3c4ccccc4CC[C@@H]3N3CC4(COC4)C3)ncnc2[nH]1 [EP-0038249] | 157 (≈ 67.4 µg/mL) |  |  | 2730 | > 25000 | 37.3 | 3.69 | 25.0 | 37.3 |  |  |  |  |
| COC1CCN([C@H]2CCc3ccccc3[C@@H]2Nc2ncnc3[nH]c(C(F)(F)F)cc23)CC1 [EP-0038282] | 134 (≈ 59.7 µg/mL) |  |  |  | > 25000 | 97.5 | 66.6 | 2.8 | 97.5 |  |  |  | Mitophagy EC50 (HeLa mKeima assay) (μM) (HeLa MKYP cells [2]; HeLa mKeima assay): Minimal |
| FC(F)(F)c1cc2c(N[C@H]3c4ccccc4CC[C@@H]3N3C4CCC3COC4)ncnc2[nH]1 [EP-0038283] | 1 (≈ 0.443 µg/mL) |  |  |  | > 25000 | 98 | 9.6 | 8.3 | 98.0 |  |  |  | Mitophagy EC50 (HeLa mKeima assay) (μM) (HeLa MKYP cells [2]; HeLa mKeima assay): Minimal |
| CN(CC1CCOCC1)[C@H]1CCc2ccccc2[C@@H]1Nc1ncnc2[nH]c(C(F)(F)F)cc12 [EP-0038394] | 7.05 (≈ 3.24 µg/mL) |  |  | 8260 | > 25000 | 61 | 11.4 | 8.3 | 61.0 |  |  |  |  |
| c1ccc2c(c1)CC[C@H](N1CCOCC1)[C@H]2Nc1ncnc2[nH]cnc12 [EP-0039678] | 164 (≈ 57.5 µg/mL) |  |  |  |  | 2.27 | 1.77 |  |  |  |  |  | Mitophagy EC50 (HeLa mKeima assay) (μM) (HeLa MKYP cells [2]; HeLa mKeima assay): Minimal |
| COC1CN([C@@H]2COc3ccccc3[C@H]2Nc2ncnc3[nH]c(C(F)(F)F)cc23)C1 [EP-0040850] |  | 88.53 | 21.4 |  | 240 |  |  | 25.0 | 10.3 | reduces | reduces | reduces |  |
| COC1CN([C@H]2CCc3ccccc3[C@@H]2Nc2ncnc3[nH]c(C(F)(F)F)cc23)C1 [EP-0040857] |  | 116.38 | 18.7 |  |  |  |  | 25.0 | 17.0 | reduces | reduces | reduces | EC50 (HeLa MKYP cells [2]; [8]): 160 nM |
| C[C@@H]1CN([C@@H]2COc3cc(F)ccc3[C@H]2Nc2ncnc3[nH]c(C(F)(F)F)cc23)CCO1 [EP-0041088] |  | 128.93 | 15.7 |  | 120 |  |  | 25.0 | 16.2 | reduces | reduces | reduces |  |
| CO[C@@H]1CCN([C@H]2COc3ccccc3[C@@H]2Nc2ncnc3[nH]c(C(F)(F)F)cc23)C1 [EP-0041161] |  | 75.49 | 3.4 |  | 50 |  |  | 25.0 | 8.5 | reduces | reduces | reduces |  |
| c1coc(CNc2ncnc3[nH]cnc23)c1 [Kinetin, kinetin, reference compound] |  |  |  |  |  |  |  |  |  |  |  |  | visual inspection of crystallization ([4]; 0.1 μM compound): 0; visual inspection of crystallization ([4]; 0.3 μM compound): 0; visual inspection of crystallization ([4]; 0.9 μM compound): 0; visual inspection of crystallization ([4]; 2.8 μM compound): 0; visual inspection of crystallization ([4]; 8.3 μM compound): 0; visual inspection of crystallization ([4]; 25.0 μM compound, HeLa MKYP culture, 20× magnification): 0 |
